Measured values taken from PubChem BioAssay AID192 (DTP/NCI, 2004).
Values joined by “and” are separate entries in the source; they are usually repeats but may differ in a detail not shown here. Equal values may be shown once. Toxic doses and inconclusive results are not listed. The calls were made as follows: active = survival T/C of 150% or more; inactive = T/C below 125% in these data.

Tested on: BDF1 mice, B16 melanoma ip, median survival T/C
Assay: NCI In Vivo Anticancer Drug Screen. Data for tumor model B16 Melanoma (intraperitoneal) in B6D2F1 (BDF1) mice
Settings: endpoint: median survival time, higher = longer survival
Outline: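 Values are ratios of treated (T) to vehicle-control (C) measurements of survival or tumor size in tumor-bearing mice.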

[1] = dose: 100.0 mg/kg/injection, schedule: Q01DX009 (ip), vehicle: Klucel (hydroxypropylcellulose) (HPC)
[2] = dose: 200.0 mg/kg/injection, schedule: Q01DX009 (ip), vehicle: Klucel (hydroxypropylcellulose) (HPC)
[3] = dose: 50.0 mg/kg/injection, schedule: Q01DX009 (ip), vehicle: saline with Tween-80
[4] = dose: 200.0 mg/kg/injection, schedule: Q01DX009 (ip), vehicle: saline with Tween-80
[5] = dose: 12.5 mg/kg/injection, schedule: Q01DX009 (ip), vehicle: saline
[6] = dose: 25.0 mg/kg/injection, schedule: Q01DX009 (ip), vehicle: saline
[7] = dose: 50.0 mg/kg/injection, schedule: Q01DX009 (ip), vehicle: saline
[8] = dose: 12.5 mg/kg/injection, schedule: Q01DX009 (ip), vehicle: Klucel (hydroxypropylcellulose) (HPC)
[9] = dose: 25.0 mg/kg/injection, schedule: Q01DX009 (ip), vehicle: Klucel (hydroxypropylcellulose) (HPC)
[10] = dose: 50.0 mg/kg/injection, schedule: Q01DX009 (ip), vehicle: Klucel (hydroxypropylcellulose) (HPC)

Measured: T/C

CSC(=C[N+](=O)[O-])SC
inactive: dose: 1.56 mg/kg/injection, schedule: Q01DX009 (ip), vehicle: water 108 % of control | dose: 3.13 mg/kg/injection, schedule: Q01DX009 (ip), vehicle: water 91 % of control | dose: 6.25 mg/kg/injection, schedule: Q01DX009 (ip), vehicle: water 95 % of control | dose: 12.5 mg/kg/injection, schedule: Q01DX009 (ip), vehicle: water 99 % of control | dose: 25.0 mg/kg/injection, schedule: Q01DX009 (ip), vehicle: water 89 % of control

Cc1ccc(C)c(NC(=O)c2ccccc2C(=O)O)c1
inactive: [1] 94 % of control | [2] 91 % of control

Cc1cc(O)c(C(C)C)cc1S(=O)(=O)O (tested in a mixture with another compound)
inactive: [3] 98 % of control | [4] 100 % of control

OCCCN1CCCCC1CO (centres undefined)
inactive: [5] 101 % of control | [6] 99 % of control | [7] 103 % of control | dose: 100.0 mg/kg/injection, schedule: Q01DX009 (ip), vehicle: saline 90 % of control | dose: 200.0 mg/kg/injection, schedule: Q01DX009 (ip), vehicle: saline 116 % of control | dose: 400.0 mg/kg/injection, schedule: Q01DX009 (ip), vehicle: saline 115 % of control

O=S(=O)(SC(S(=O)(=O)c1ccccc1)S(=O)(=O)c1ccccc1)c1ccccc1
inactive: [8] 99 % of control | [9] 99 % of control | [10] 105 % of control | [1] 107 % of control | [2] 90 % of control

O=N[O-].[Co].[NH2-].[NH2-].[NH2-].[NH2-].[NH2-]
inactive: [5] 90 % of control | dose: 12.5 mg/kg/injection, schedule: Q04DX003 (ip), vehicle: saline 107 % of control | [6] 97 % of control | dose: 25.0 mg/kg/injection, schedule: Q04DX003 (ip), vehicle: saline 105 % of control | [7] 100 % of control | dose: 50.0 mg/kg/injection, schedule: Q04DX003 (ip), vehicle: saline 100 % of control

Cc1c(Cl)cccc1N=Cc1ccccc1O
inactive: [10] 106 % of control | [1] 108 % of control | [2] 97 % of control

[N-]=[N+]=CC(=O)CCC(=O)C=[N+]=[N-]
inactive: dose: 0.18 mg/kg/injection, schedule: Q01DX009 (ip), vehicle: other 92 % of control | dose: 0.37 mg/kg/injection, schedule: Q01DX009 (ip), vehicle: other 96 % of control | dose: 0.39 mg/kg/injection, schedule: Q01DX009 (ip), vehicle: other 123 % of control | dose: 0.75 mg/kg/injection, schedule: Q01DX009 (ip), vehicle: other 92 % of control | dose: 1.5 mg/kg/injection, schedule: Q01DX009 (ip), vehicle: other 104 % of control | dose: 1.56 mg/kg/injection, schedule: Q01DX009 (ip), vehicle: other 101 % of control and 117 % of control

N#CCN1CCCCC1
inactive: dose: 0.39 mg/kg/injection, schedule: Q01DX009 (ip), vehicle: saline 96 % of control | dose: 0.78 mg/kg/injection, schedule: Q01DX009 (ip), vehicle: saline 100 % of control | dose: 1.56 mg/kg/injection, schedule: Q01DX009 (ip), vehicle: saline 102 % of control

Cc1n(CC(C)C)c2c([n+]1CC(=O)c1ccc([N+](=O)[O-])cc1)C(=O)c1ccccc1C2=O
inactive: dose: 0.1 mg/kg/injection, schedule: Q01DX009 (ip), vehicle: saline 95 % of control | dose: 0.2 mg/kg/injection, schedule: Q01DX009 (ip), vehicle: saline 97 % of control | dose: 0.4 mg/kg/injection, schedule: Q01DX009 (ip), vehicle: saline 97 % of control | dose: 0.8 mg/kg/injection, schedule: Q01DX009 (ip), vehicle: saline 88 % of control | dose: 1.2 mg/kg/injection, schedule: Q01DX009 (ip), vehicle: Klucel (hydroxypropylcellulose) (HPC) 93 % of control | dose: 1.25 mg/kg/injection, schedule: Q01DX009 (ip), vehicle: saline with Tween-80 86 % of control | dose: 1.8 mg/kg/injection, schedule: Q01DX009 (ip), vehicle: Klucel (hydroxypropylcellulose) (HPC) 93 % of control | dose: 2.5 mg/kg/injection, schedule: Q01DX009 (ip), vehicle: saline with Tween-80 86 % of control | dose: 3.0 mg/kg/injection, schedule: Q01DX009 (ip), vehicle: Klucel (hydroxypropylcellulose) (HPC) 87 % of control | dose: 5.0 mg/kg/injection, schedule: Q01DX009 (ip), vehicle: Klucel (hydroxypropylcellulose) (HPC) 93 % of control

C[C@]12CC[C@H](O)C[C@@H]1CC[C@@H]1[C@@H]2C(=O)C[C@@]2(C)[C@H]1CC[C@]2(O)C(=O)CBr
inactive: [10] 90 % of control | [3] 100 % of control | [1] 93 % of control | dose: 100.0 mg/kg/injection, schedule: Q01DX009 (ip), vehicle: saline with Tween-80 94 % of control | [4] 91 % of control

Oc1c(CN2CCCC2)cc(Nc2cc(/C=C/c3ccc(Cl)cc3)nc(/C=C\c3ccc(Cl)cc3)n2)cc1CN1CCCC1
inactive: dose: 3.0 mg/kg/injection, schedule: Q04DX003 (ip), vehicle: Klucel (hydroxypropylcellulose) (HPC) 105 % of control | dose: 6.0 mg/kg/injection, schedule: Q04DX003 (ip), vehicle: Klucel (hydroxypropylcellulose) (HPC) 97 % of control | dose: 12.0 mg/kg/injection, schedule: Q04DX003 (ip), vehicle: Klucel (hydroxypropylcellulose) (HPC) 89 % of control

O=C1CCNC(=O)N1OS(=O)(=O)c1ccccc1
inactive: dose: 6.25 mg/kg/injection, schedule: Q01DX009 (ip), vehicle: Klucel (hydroxypropylcellulose) (HPC) 106 % of control | [8] 100 % of control | [9] 98 % of control
